The conditions of series [1]: cited from earlier work.
A short description of series [2]: Phase 2 clinical trial PK profile of ZP1848 and metabolites in SBS patients. To be noted: human, plasma. It is filed as in vivo. As for the experimental part: The study was designed as a randomized, cross-over and double-blinded with three different doses of ZP1848 (10 mg, 1 mg, 0.1 mg) in 16 SBS patients.
The 18 SBS patients (16 patients completed the study) were randomized evenly and in a double-blinded fashion to each of the six cross-over dose level combinations: 10 mg/1 mg, 10 mg/0.1 mg, 1 mg/10 mg, 1 mg/0.1 mg, 0.1 mg/10 mg, 0.1 mg/1 mg of ZP1848. The patients were injected once daily (QD) subcutaneously with the above doses of ZP1848.
Blood samples for PK analysis were collected on several study visits throughout the study period: the study comprised a 1st baseline balance study (4 days), a 1st treatment period (21 days) including a 1st treatment balance study (last 4 days of 1st treatment period), followed by a wash-out period (at least 4 weeks); and a 2nd baseline balance study (4 days), a 2nd treatment period (21 days) including a 2nd treatment balance study (last 4 days of 2nd treatment period) and a follow-up period (at least 4 weeks).
PK sampling was performed at visit 11 (1st treatment, balance study) and visit 17 (second day of 2nd baseline study-after a wash out period), and again at visit 25 (2nd treatment balance study) and at visit 29 (last day of follow-up period).
At day visit 11 and visit 25 a full PK profile in steady state was investigated. PK samples were taken prior to injection of ZP1848, and at the following time points (+/−10 minutes) after trial product administration: 1 h, 2 h, 4 h, 6 h, 8 h, 10 h, 12 h and 24 h. Each PK sample contained 2 mL of blood, resulting in a total of […] blood drawn for PK purposes. The plasma sample was immediately stored at −80° C. after sampling.
Plasma samples were analyzed after immunoaffinity extraction followed by liquid chromatography mass spectrometry (LC-MS/MS). […] Plasma terminal elimination half-life (T½) was determined as In (2)/ke where ke is the magnitude of the slope of the log linear regression of the log concentration versus time profile during the terminal phase.

Series [3] can be described thus: Phase 1 PK trial of glepaglutide in healthy subjects, half-life of metabolite ZP2469. The following applies: per subject; for half-life: human, plasma. It is filed as in vivo, human. The source says: A Phase 1, Open-Label, Partially Randomized, 3-Part, Parallel Group Trial to Evaluate the Pharmacokinetic Profile of glepaglutide (ZP1848) After a Single Intravenous Injection and After Multiple Subcutaneous Injections in Healthy Human Subjects A Phase 1 clinical trial to characterize the pharmacokinetic (PK) profiles of glepaglutide (ZP1848) and its primary active metabolites following once-weekly and once daily subcutaneous (SC) injections and after a single intravenous (IV) infusion in healthy subjects was conducted. This included evaluating the pharmacodynamic effects on plasma citrulline levels following SC dosing in healthy subjects. The trial confirmed the feasibility of dosage regimes in which GLP-2 analogues are administered to patients in weekly dosage regimes and compare weekly dosage regimes with daily dosing.
The trial design was a single-center, open-label, partially randomized, 3-part, parallel group trial to characterize the PK profile of glepaglutide administered by SC injection once daily for 7 days (Part 1), SC injection once weekly for 6 weeks (Part 2), and as a single IV infusion (Part 3) in healthy subjects.
Group A: 1 mg glepaglutide once daily, given as single SC injections on Days 1 to 7.
Group B: 5 mg glepaglutide once daily, given as single SC injections on Days 1 to 7.
Group C: 5 mg glepaglutide once weekly, given as single SC injections on Days 1, 8, 15, 22, 29, and 36.
Group D: 10 mg glepaglutide once weekly, given as single SC injections on Days 1, 8, 15, 22, 29, and 36.
Blood samples were collected for the analysis of plasma concentrations of glepaglutide and its primary active metabolites, ZP2469 (ZP18481-34) and ZP2711 (ZP18481-35); samples were assayed using validated analytical methods. The following PK parameter estimates were calculated using standard non-compartmental methods: terminal elimination half-life (t1/2), total body clearance of drug after IV administration (CL; IV dose, parent drug only), apparent total clearance (CL/F; SC doses, parent drug only), volume of distribution at steady state (Vss; IV dose, parent drug only), apparent volume of distribution at steady state (Vss/F; SC doses, parent drug only), volume of distribution (Vz; IV dose, parent drug only), apparent volume of distribution (Vz/F; SC doses, parent drug only), maximum observed plasma concentration (Cmax), area under the plasma concentration-time curve (AUC) over a dosing interval (AUCT), AUC from time zero to infinity (AUCinf), AUC from time zero to the time of the last measurable concentration (AUClast), and time of the maximum observed plasma concentration (tmax). Metabolite exposure (based on Cmax, AUCT, and AUCinf) were determined for each group as a ratio of the 2 primary active metabolites, ZP2469 (ZP18481-34) and ZP2711 (ZP18481-35), relative to the glepaglutide parent drug.
The PK parameters estimates for glepaglutide, ZP2469 (ZP18481-34), and ZP2711 (ZP 18481-35) were listed and summarized using standard descriptive statistics. The primary PK parameters are t1/2 for glepaglutide, ZP2469 (ZP18481-34), and ZP2711 (ZP18481-35); and CL (IV dose), CL/F (SC doses), Vss(IV dose), Vss/F (SC dose), Vz(IV dose), and Vz/F (SC doses) for glepaglutide. The half-life is calculated as LN(2)/ke where ÷ke is estimate from the slope of the terminal part of the LN(concentration) versus time curve, with repeats regressions of LN(concentration) values using the last three points with non-zero concentrations, then the last four points, last five points, etc. Points with a concentration value of zero are not included. Points prior to Cmax are not used. […] 2) ke must be calculated from at least three data points. 3) The estimated slope must be negative, so that its negative ke is positive. The results of the calculations carried out with preliminary data are shown in Table 4, while the results of the calculations with the complete final data set are shown in Table 5. […]

In series [4] the test system is Wistar rats. Nature of the series: Intestinotrophic effects following 26-week chronic exposure in rats. Format: in vivo. The following applies: in words. The procedure: Wistar rats were dosed subcutaneously (SC) with vehicle, 1, 3 and 10 mg/kg ZP1848 on a daily basis for 26 weeks. Further sub-groups of control and high-dose animals were allowed a 6-week recovery period following completion of the dosing period. […] The length and the weight of the small and large intestines were measured at necropsy as indicators of intestinotrophic effects and the intestinal tract was evaluated histologically.

The target of series [5] is T1, human GLP-2 receptor (human, UniProt O95838 1-553).
T1 sequence (looked up): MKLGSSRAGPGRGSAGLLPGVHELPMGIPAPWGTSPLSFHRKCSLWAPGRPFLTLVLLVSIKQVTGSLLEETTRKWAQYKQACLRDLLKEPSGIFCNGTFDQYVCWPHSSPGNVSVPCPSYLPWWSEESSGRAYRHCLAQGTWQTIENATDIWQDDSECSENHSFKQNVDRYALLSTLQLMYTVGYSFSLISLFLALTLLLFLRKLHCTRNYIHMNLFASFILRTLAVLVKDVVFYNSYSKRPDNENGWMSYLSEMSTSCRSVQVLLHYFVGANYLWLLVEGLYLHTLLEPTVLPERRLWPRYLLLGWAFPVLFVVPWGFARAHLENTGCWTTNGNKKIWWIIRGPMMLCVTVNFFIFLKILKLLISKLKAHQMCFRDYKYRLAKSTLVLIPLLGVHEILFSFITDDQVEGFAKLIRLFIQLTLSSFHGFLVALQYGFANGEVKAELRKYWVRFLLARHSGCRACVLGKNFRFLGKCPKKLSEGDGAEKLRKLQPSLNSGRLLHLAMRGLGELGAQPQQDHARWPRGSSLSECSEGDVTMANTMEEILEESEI
Put plainly: cell-based or functional assay.

Values joined by “and” are separate entries in the source; they are usually repeats but may differ in a detail not shown here. Equal entries are not always repeated. Where two headings read alike, the source gives them in different places. Ends that are not written are not given here.

For the molecule `CC[C@H](C)[C@H](NC(=O)[C@H](Cc1ccccc1)NC(=O)[C@H](CC(=O)O)NC(=O)[C@H](CCCNC(=N)N)NC(=O)[C@H](C)NC(=O)[C@H](C)NC(=O)[C@H](CC(C)C)NC(=O)[C@H](CC(N)=O)NC(=O)[C@H](CC(=O)O)NC(=O)[C@H](CC(C)C)NC(=O)[C@@H](NC(=O)[C@@H](NC(=O)[C@H](CC(N)=O)NC(=O)[C@H](CCSC)NC(=O)[C@H](CCC(=O)O)NC(=O)[C@H](CC(=O)O)NC(=O)[C@H](CO)NC(=O)[C@H](Cc1ccccc1)NC(=O)[C@H](CO)NC(=O)CNC(=O)[C@H](CC(=O)O)NC(=O)CNC(=O)[C@@H](N)Cc1c[nH]cn1)[C@@H](C)O)[C@@H](C)CC)C(=O)N[C@@H](CC(N)=O)C(=O)N[C@@H](Cc1c[nH]c2ccccc12)C(=O)N[C@@H](CC(C)C)C(=O)N[C@H](C(=O)N[C@@H](CCC(N)=O)C(=O)N[C@H](C(=O)N[C@@H](CCCCN)C(=O)N[C@H](C(=O)N[C@H](C(=O)N[C@@H](CC(=O)O)C(=O)O)[C@@H](C)O)[C@@H](C)CC)[C@@H](C)O)[C@@H](C)CC` [Teduglutide], the half-life (commonly how long it takes for the measured level to halve) in series [1] (in vivo) is reported as “about two”.
Regarding “GLP-2 [3-33]: truncated GLP-2 [3-33] (DGSFSDEMNTILDNLAARDFINWLIQTKITD; Glucagon-like peptide 2; UniProt P01275 148-178, looked up, fragment)”, the half-life in series [1] (in humans) is around 0.45 h.
With “H-HGEGTFSSELATILDALAARDFIAWLIATKITDK-OH [ZP2469]”, the half-life was 120 to 408 h in series [2] (subcutaneous, Phase 2 study, SBS patients, read-out: terminal plasma half-life); 56 h in series [3] (sc, 10 mg, preliminary results, Group D, 10 mg glepaglutide SC once weekly, after 1 dose, read-out: Half-life ZP2469 (converted)); 94 h in series [3] (subcutaneous, 1 mg, final results, Group A, 1 mg once daily, after 7 doses, read-out: Half-life of ZP2469 in the interval from 72 to 168 hours post dose (converted)). Also, the “Half-life of ZP2469 in the interval from 72 to 168 hours post dose” value is 75 h in series [3] (final results, Group A, 1 mg once daily, after 7 doses); 59 h and 75 h in series [3] (final results, Group C, 5 mg once weekly, after 1 dose); 57 h in series [3] (final results, Group C, 5 mg once weekly, after 6 doses); 54 h and 46 h and 35 h and 60 h and 26 h and 53 h and 43 h and 33 h and 45 h and 38 h in series [3] (final results, Group D, 10 mg once weekly, after 1 dose); 59 h and 53 h and 42 h and 48 h in series [3] (final results, Group D, 10 mg once weekly, after 6 doses). The “Half-life ZP2469” value is 20 h in series [3] (preliminary results, Group A, 1 mg glepaglutide SC once daily, after 7 doses); 17 h in series [3] (preliminary results, Group C, 5 mg glepaglutide SC once weekly, after 1 dose); 38 h and 34 h in series [3] (preliminary results, Group D, 10 mg glepaglutide SC once weekly, after 1 dose).
For the molecule “H-HGEGTFSSELATILDALAARDFIAWLIATKITDKK-OH [ZP2711]”, in series [2] (sc, plasma terminal elimination half-life, per subject, after SC once-daily ZP1848, read-out: Half-life (converted)), the half-life is 336 h.
Take “H-HGEGTFSSELATILDALAARDFIAWLIATKITDKKKKKK-NH2 [ZP1848]”: the “mucosal hyperplasia of the duodenum, jejunum and ileum” value in series [4] (1, 3 and 10 mg/kg SC daily for 26 weeks) is “dose-related increase”. Moreover, in series [4] (SC daily for 26 weeks), the “length and weight of the large intestine” value is “slightly increased”.
As for “Hy-His-Ala-Asp-Gly-Ser-Phe-Ser-Asp-Glu-Met-Asn-Thr-Ile-Leu-Asp-Asn-Leu-Ala-Ala-Arg-Asp-Phe-Ile-Asn-Trp-Leu-Ile-Gln-Thr-Lys-Ile-Thr-Asp-OH [GLP-2 [1-33]]”, the half-life result in series [1] (in humans) is “around 7 minutes”; in series [1] (in humans, listed as native GLP-2), “seven”.
With Teduglutide (peptide), the EC50 Avg (nM), cAMP AlphaScreen in HEK293 cells expressing hGLP-2R in series [5] is 0.03 nM.
On to HGEGSFSSELSTILDALAARDFIAWLIATKITDKKKKKK-NH2 [ZP1846], for which, in series [5], the “EC50_Avg (nM), cAMP AlphaScreen in HEK293 cells expressing hGLP-2R” value stood at 0.26 nM.
On the same count and under the same terms, in the case of HGEGTFSSELATILDALAARDFIAWLIATKITDKKK-OH [ZP2949] it was 0.11 nM; in that of HGEGTFSSELATILDALAARDFIAWLIATKITDK-OH [ZP2469], 0.052 nM; in that of HGEGTFSSELATILDALAARDFIAWLIATKITDKKKKKK-NH2 [ZP1848], 0.3 nM.
With HGEGTFSSELATILDALAARDFIAWLIATKITDKK-OH [ZP2711], in series [5], the “EC50_Avg (nM), cAMP AlphaScreen in HEK293 cells expressing hGLP-2R” value was determined as 0.072 nM.

Values taken from patent US20250136655A1, “INJECTION PEN FOR SUBCUTANEOUS ADMINISTRATION OF A PEPTIDE” (Zealand Pharma A/S, priority 2017, published 2025).
